In ChEMBL document CHEMBL4834457, “Discovery and optimization of selective RET inhibitors via scaffold hopping” (Bioorg Med Chem Lett, 2021):
Active and inactive are the calls of the source. The rule behind the calls is not given here.

Key:
BaF3 [1] = test: Antiproliferative activity against mouse KIF5B-RET BaF3 cells by cell based assay; type: functional
[2] = Intrinsic clearance in mouse liver microsomes; type: ADME, Microsome; details: read-out: CLH
[3] = Intrinsic clearance in human liver microsomes; type: ADME, Microsome; details: read-out: CLH
[4] = molecular target: Proto-oncogene tyrosine-protein kinase receptor Ret (Homo sapiens, UniProt P07949, M918T); test: Inhibition of RET M918T mutant (unknown origin)
[5] = molecular target: T1, Receptor-type tyrosine-protein kinase FLT3 (Homo sapiens, UniProt P36888); test: Inhibition of FLT3 (unknown origin)
T1 sequence (P36888 whole entry): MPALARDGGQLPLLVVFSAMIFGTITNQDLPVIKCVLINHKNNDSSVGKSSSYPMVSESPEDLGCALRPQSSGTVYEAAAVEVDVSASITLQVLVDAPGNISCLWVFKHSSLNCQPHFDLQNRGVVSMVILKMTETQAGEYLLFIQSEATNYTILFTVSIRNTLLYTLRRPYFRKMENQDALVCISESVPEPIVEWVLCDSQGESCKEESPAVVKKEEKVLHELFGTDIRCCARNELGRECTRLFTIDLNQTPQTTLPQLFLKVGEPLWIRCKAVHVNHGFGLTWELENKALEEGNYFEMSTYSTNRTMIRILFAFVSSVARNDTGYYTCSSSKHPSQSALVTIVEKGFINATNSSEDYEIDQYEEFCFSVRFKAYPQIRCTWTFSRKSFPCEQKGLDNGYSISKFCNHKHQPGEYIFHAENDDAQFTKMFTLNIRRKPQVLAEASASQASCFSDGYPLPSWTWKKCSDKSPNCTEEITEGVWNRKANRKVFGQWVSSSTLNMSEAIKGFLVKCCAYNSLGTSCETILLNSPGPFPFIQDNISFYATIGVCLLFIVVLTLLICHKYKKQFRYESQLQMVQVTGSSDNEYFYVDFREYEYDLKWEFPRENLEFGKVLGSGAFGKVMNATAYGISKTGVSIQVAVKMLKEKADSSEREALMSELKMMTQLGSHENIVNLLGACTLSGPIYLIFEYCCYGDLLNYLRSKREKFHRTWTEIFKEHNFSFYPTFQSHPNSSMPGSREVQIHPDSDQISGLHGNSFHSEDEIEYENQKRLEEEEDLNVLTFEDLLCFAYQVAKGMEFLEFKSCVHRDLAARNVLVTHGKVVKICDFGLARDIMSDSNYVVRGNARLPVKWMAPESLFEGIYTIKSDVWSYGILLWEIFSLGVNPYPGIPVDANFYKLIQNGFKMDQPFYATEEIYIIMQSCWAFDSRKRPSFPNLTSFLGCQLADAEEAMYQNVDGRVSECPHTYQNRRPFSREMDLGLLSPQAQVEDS

[6] = Toxicity in mouse transplanted with mouse KIF5B-RET Ba/F3 cells assessed as change in body weight at 10 mg/kg, po […] for 10 days relative to control; type: organism-based, BaF3; details: in vivo, 240 h, time 10 day
[7] = Toxicity in mouse transplanted with mouse KIF5B-RET Ba/F3 cells assessed as change in body weight at 20 mg/kg, po […] for 10 days relative to control; type: organism-based, BaF3; details: in vivo, 240 h, time 10 day
[8] = Volume of distribution in mouse; type: ADME, organism-based; details: in vivo
BaF3 [9] = test: Antitumor activity against mouse KIF5B-RET BaF3 cells xenografted in nu/nu mouse assessed as tumour growth inhibition at 10 mg/kg, po qd for 10 days; type: functional, organism-based; details: time 10.0 day
[10] = AUC in mouse plasma at 10 mg/kg, po; type: ADME, organism-based; parameters: dose 10 mg/kg
[11] = Drug level in tumor of mouse transplanted with mouse KIF5B-RET Ba/F3 cells at 10 mg/kg, po qd for 10 days measured after 8.5 hrs; type: ADME, organism-based, Neoplasm, BaF3; details: in vivo, 240 h, time 10 day
[12] = molecular target: Proto-oncogene tyrosine-protein kinase receptor Ret (Homo sapiens, UniProt P07949); test: Inhibition of RET wild type (unknown origin)
BaF3 [13] = test: Antitumor activity against mouse KIF5B-RET BaF3 cells xenografted in nu/nu mouse assessed as tumour growth inhibition at 20 mg/kg, po qd for 10 days; type: functional, organism-based; details: time 10.0 day
[14] = molecular target: Proto-oncogene tyrosine-protein kinase receptor Ret (Homo sapiens, UniProt P07949, V804M); test: Inhibition of RET V804M mutant (unknown origin)
[15] = Drug level in plasma of mouse transplanted with mouse KIF5B-RET Ba/F3 cells at 10 mg/kg, po qd for 10 days measured after 8.5 hrs; type: ADME, organism-based, BaF3; details: time 10 day
[16] = molecular target: Tyrosine-protein kinase JAK2 (Homo sapiens, UniProt O60674); test: Inhibition of JAK2 (unknown origin)
[17] = Clearance in mouse; type: ADME, organism-based; details: in vivo
[18] = Oral bioavailability in mouse; type: ADME, organism-based; details: in vivo

Sequence of Tyrosine-protein kinase JAK2 (O60674 whole entry): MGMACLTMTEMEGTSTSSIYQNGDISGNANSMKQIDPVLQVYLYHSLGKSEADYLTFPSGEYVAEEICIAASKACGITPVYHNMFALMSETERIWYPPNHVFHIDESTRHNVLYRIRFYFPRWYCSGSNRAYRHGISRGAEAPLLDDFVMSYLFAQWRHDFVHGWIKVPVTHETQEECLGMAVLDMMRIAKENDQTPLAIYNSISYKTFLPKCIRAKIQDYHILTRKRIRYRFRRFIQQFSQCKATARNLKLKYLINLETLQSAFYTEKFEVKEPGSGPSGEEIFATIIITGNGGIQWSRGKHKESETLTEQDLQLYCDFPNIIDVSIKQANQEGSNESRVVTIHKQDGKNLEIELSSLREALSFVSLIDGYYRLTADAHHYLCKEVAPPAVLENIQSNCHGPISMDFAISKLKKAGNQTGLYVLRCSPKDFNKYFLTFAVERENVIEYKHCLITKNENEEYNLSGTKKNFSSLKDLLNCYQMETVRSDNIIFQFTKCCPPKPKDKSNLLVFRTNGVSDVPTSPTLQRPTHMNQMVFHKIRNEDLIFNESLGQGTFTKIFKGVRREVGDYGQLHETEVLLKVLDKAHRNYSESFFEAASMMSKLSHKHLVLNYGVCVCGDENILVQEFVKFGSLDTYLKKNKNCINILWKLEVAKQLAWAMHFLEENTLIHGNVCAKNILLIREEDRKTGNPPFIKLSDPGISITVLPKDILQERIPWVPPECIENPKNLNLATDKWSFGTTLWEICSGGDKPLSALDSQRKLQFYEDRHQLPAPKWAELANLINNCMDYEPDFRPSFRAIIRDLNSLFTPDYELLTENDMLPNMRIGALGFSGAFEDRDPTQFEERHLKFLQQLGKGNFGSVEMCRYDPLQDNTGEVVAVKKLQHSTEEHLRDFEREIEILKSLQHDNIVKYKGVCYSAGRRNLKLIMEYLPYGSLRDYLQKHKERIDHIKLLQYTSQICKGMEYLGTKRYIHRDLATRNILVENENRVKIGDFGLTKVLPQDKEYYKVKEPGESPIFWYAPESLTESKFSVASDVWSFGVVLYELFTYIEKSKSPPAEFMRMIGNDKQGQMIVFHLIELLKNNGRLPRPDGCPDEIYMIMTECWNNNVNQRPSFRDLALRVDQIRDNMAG
Sequence of Proto-oncogene tyrosine-protein kinase receptor Ret (Homo sapiens, UniProt P07949, M918T) (P07949 29-1114 M918T limits assumed): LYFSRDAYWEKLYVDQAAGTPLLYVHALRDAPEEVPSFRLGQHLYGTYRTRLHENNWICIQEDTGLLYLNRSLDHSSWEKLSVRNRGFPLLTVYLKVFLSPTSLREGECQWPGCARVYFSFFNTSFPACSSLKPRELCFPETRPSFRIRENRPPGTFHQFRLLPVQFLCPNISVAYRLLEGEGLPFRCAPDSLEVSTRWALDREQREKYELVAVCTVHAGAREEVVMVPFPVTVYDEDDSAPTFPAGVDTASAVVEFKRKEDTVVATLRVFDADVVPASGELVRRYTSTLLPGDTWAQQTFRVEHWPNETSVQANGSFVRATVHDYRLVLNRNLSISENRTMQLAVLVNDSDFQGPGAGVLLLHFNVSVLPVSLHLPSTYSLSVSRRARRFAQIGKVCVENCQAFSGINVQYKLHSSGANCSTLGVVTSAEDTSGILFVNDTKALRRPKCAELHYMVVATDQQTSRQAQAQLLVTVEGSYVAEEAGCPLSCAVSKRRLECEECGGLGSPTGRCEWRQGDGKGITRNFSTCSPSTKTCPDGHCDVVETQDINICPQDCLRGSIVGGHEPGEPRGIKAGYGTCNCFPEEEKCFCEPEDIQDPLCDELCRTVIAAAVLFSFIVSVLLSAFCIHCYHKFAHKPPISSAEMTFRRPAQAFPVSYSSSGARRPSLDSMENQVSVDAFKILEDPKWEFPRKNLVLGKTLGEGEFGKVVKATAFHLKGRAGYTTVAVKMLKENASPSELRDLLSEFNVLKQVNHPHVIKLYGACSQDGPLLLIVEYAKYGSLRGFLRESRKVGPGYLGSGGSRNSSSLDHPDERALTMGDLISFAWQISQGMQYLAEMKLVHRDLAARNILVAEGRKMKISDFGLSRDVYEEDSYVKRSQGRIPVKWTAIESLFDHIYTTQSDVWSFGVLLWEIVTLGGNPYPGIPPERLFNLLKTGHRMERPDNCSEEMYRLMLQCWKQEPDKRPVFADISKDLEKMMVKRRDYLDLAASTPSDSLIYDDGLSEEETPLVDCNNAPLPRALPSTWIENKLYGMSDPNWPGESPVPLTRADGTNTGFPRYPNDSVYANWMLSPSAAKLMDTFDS
Sequence of Proto-oncogene tyrosine-protein kinase receptor Ret (Homo sapiens, UniProt P07949, V804M) (P07949 29-1114 V804M limits assumed): as the sequence (P07949 29-1114 M918T limits assumed) above, with V776M, T890M counted along it
Sequence of Proto-oncogene tyrosine-protein kinase receptor Ret (Homo sapiens, UniProt P07949) (P07949 whole entry): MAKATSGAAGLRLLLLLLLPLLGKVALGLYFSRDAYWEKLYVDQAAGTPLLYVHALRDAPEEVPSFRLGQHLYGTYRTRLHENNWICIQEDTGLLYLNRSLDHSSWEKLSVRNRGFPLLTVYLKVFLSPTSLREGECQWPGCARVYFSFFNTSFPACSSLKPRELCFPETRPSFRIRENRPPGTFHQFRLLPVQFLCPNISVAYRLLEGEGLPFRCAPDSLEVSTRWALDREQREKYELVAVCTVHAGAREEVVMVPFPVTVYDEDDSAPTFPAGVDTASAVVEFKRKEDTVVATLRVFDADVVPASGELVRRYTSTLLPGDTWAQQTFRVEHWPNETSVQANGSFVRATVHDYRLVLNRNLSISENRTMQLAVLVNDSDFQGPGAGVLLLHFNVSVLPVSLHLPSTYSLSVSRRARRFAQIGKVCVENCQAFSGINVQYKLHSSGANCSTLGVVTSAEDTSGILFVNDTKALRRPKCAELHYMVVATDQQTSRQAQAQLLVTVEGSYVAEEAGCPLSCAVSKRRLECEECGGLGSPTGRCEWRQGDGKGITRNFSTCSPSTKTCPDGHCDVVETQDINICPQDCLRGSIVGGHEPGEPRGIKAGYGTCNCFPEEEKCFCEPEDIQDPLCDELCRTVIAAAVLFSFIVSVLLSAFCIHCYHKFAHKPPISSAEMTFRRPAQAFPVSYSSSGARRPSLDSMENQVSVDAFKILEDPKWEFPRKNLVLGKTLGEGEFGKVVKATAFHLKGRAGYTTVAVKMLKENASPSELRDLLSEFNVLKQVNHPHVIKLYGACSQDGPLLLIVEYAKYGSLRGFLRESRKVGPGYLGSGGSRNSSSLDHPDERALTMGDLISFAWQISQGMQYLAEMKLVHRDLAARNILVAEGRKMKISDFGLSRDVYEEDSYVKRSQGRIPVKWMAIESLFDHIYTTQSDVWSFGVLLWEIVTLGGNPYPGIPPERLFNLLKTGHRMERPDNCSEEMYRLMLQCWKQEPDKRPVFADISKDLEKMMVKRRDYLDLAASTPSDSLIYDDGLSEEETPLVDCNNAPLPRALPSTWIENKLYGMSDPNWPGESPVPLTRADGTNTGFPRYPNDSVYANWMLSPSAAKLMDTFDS

IC50 (BaF3 [1]) | CLint scaled [2] | CLint scaled [3] | IC50 [4] | IC50 [5] | Vd [8] | AUC [10] | Drug uptake [11] | IC50 [12] | IC50 [14] | concentration at 240 h [15] | IC50 [16] | clearance [17] | bioavailability [18] | SMILES | Activity [6] | Activity [7] | Activity (BaF3 [9]) | Activity (BaF3 [13])
19 nM | 136 mL/min/kg | 31.3 mL/min/kg | – | – | – | – | – | – | – | – | – | – | – | Cc1cc(Nc2cc(C)[nH]n2)nc(N2CCC3(CCCN([C@@H](C)c4cnc(-n5cc(F)cn5)cn4)C3=O)CC2)n1 | – | – | – | –
– | < 38 mL/min/kg | < 8.6 mL/min/kg | – | – | – | – | – | – | – | – | – | – | – | Cc1cc(Nc2cc(C)[nH]n2)nc(C2CCC3(CCCN([C@@H](C)c4ccc(-n5cc(F)cn5)nc4)C3=O)CC2)n1 (some centres undefined) | – | – | – | –
19 nM | 79 mL/min/kg | 24.1 mL/min/kg | 0.9 nM | 30.8 nM | 1.5 L/kg | 27.7 µM·h | 8100 nmol/kg | 1.29 nM | 1.97 nM | 3.94 µM | 4.4 nM | 6.6 mL/min/kg | 59.7% | Cc1cc(Nc2cc(C)[nH]n2)nc(N2CCC3(CC2)OCCN([C@@H](C)c2ccc(-n4cc(F)cn4)nc2)C3=O)n1 | Non-Toxic | Non-Toxic | Active | Active
17 nM | < 38 mL/min/kg | < 8.6 mL/min/kg | – | 6.5 nM | 0.7 L/kg | 46.1 µM·h | 2522 nmol/kg | – | – | 6.32 µM | 2 nM | 5 mL/min/kg | 77.2% | CO[C@]1(C(=O)N[C@@H](C)c2ccc(-n3cc(F)cn3)nc2)CC[C@H](c2nc(C)cc(Nc3cc(C)[nH]n3)n2)CC1 [PRALSETINIB] | Non-Toxic | – | Active | –
14 nM | 155 mL/min/kg | 36.4 mL/min/kg | – | – | – | – | – | – | – | – | – | – | – | Cc1cc(Nc2cc(C)[nH]n2)nc(N2CCC3(CCCN([C@@H](C)c4ccc(-n5cc(F)cn5)nc4)C3=O)CC2)n1 | – | – | – | –
